Source: patent US10111434B2, “Binary fungicidal mixtures” (BAYER CROPSCIENCE AG, priority 2012, dated 2018)

Columns and labels:
Phakopsora pachyrhizi = experiment: Phakopsora test (soybeans)/preventive; type: in vivo; conditions: preventive spray, evaluated 7 days after inoculation
Method: Phakopsora Test (Soybeans)/Preventive
(§1) To produce a suitable preparation of active compound, 1 part by weight of active compound is mixed with the stated amounts of solvent and emulsifier, and the concentrate is diluted with water to the desired concentration.
(§2) To test for preventive activity, young plants are sprayed with the preparation of active compound at the stated rate of application. After the spray coating has dried on, the plants are inoculated with an aqueous spore suspension of the causal agent of soybean rust (Phakopsora pachyrhizi) and stay for 24 h without light in an incubation cabinet at approximately 24° C. and a relative atmospheric humidity of 95%.
The plants remain in the incubation cabinet at approximately 24° C. and a relative atmospheric humidity of approximately 80% and a day/night interval of 12 h.
The test is evaluated 7 days after the inoculation. 0% means an efficacy which corresponds to that of the untreated control, while an efficacy of 100% means that no disease is observed.

Alternaria solani = experiment: Alternaria test (tomatoes)/preventive; type: in vivo; conditions: preventive spray, evaluated 3 days after inoculation
Method: Alternaria Test (Tomatoes)/Preventive
as §1
as §2, with “Alternaria solani. The plants are then placed” for “the causal agent of soybean rust (Phakopsora pachyrhizi) and stay for 24 h without light”, “20°” for “24°”, “100%.” for “95%.”
The test is evaluated 3 days after the inoculation. 0% means an efficacy which corresponds to that of the untreated control while an efficacy of 100% means that no disease is observed.

Molecule	Efficacy in % found (Phakopsora pachyrhizi; 25 ppm a.i.)	Efficacy in % found (Alternaria solani; 25 ppm a.i.)	Efficacy in % found (Phakopsora pachyrhizi; 2.5 ppm a.i.)	Efficacy in % found (Alternaria solani; 2.5 ppm a.i.)
Cn1c(=O)c2sc3c(=O)n(C)c(=O)c3sc2c1=O [2.1, 2,6-dimethyl-1H,5H-[1,4]dithiino[2,3-c:5,6-c′]dipyrrole-1,3,5,7(2H,6H)-tetrone]	8%	39%		
CC1CC(C)(C)c2cccc(NC(=O)c3cn(C)nc3C(F)F)c21 (stereo not drawn) [(I-1), 3-(difluoromethyl)-1-methyl-N-(1,1,3-trimethyl-2,3-dihydro-1H-inden-4-yl)-1H-pyrazole-4-carboxamide]			68%	36%
propineb [2.2]	0%	33%		
